# Source: PMC8214221, “Sequence determinants in the cathelicidin LL-37 that promote inflammation via presentation of RNA to scavenger receptors” (The Journal of Biological Chemistry, 2021)
# Residues, ends and D or L forms follow the SMILES beside them.
# Test system: NHEKs, IL6, IFNB1, TSLP, CXCL10 mRNA
# Assay: qRT-PCR gene expression in NHEKs
# Format: cell-based, human
# Settings: 18 h / 8 h (Fig. 1 legend), n = 3; for Gene expression of IL6, IFNB1, and CXCL10, cotreatment with U1 dsRNA: U1 dsRNA 2.5 μg/ml + peptide 2 μM; for Gene expression of TSLP, peptide alone / Basal expression of IL6, IFNB1, and CXCL10, peptide alone: peptide 2 μM alone; for Gene expression of TSLP, peptide alone: GAPDH reference
# Experimental: Protein levels of human IL-6 were analyzed from cell supernatant with ELISA (n = 3). Corresponding MIC values of LL-34 peptides L1A–R34A against Staphylococcus aureus USA300 are shown in the heat map. B, human dermal endothelial cells (HDMECs) were treated with either U1 dsRNA (2.5 μg/ml) or a combination of U1 dsRNA (2.5 μg/ml) and LL-34 peptides (Pep 1–Pep 34 and Pep–parent LL-34) at 2 μM for 18 h. IL-6 ELISA results are shown (n = 3). Green bars denote loss of IL-6 protein secretion compared with parent control shown in red. C, helical wheel plot for LL-34. Amino acids with green circles denote specific residues where replacement with an alanine caused the loss of IL-6 secretion compared with parent LL-34 peptide in NHEKs cotreated with U1 dsRNA. D, in the helical wheel plot for LL-34, circled green amino acids indicate that a substitution caused a loss of vetting in HDMEC. E–H, NHEKs were treated with LL-34-parent peptide (LL-34-P), LL-34-F5A, LL-34-I24A, LL-34-F27A, and LL-34-L31A at 2 μM, either individually or in combination with U1 dsRNA (2.5 μg/ml) for 8 h. Gene expression of IL-6, IFNB1, TSLP, and CXCL10 was assessed with qRT-PCR. GAPDH was used as a reference gene (n = 3) (∗p < 0.05; ∗∗∗∗p < 0.0001). One way-ANOVA was used. IL-6, interleukin 6; LL-34, 34-amino acid peptide; MIC, minimum inhibitory concentration, ns, not significant.
# We further looked at mRNA abundance by quantitative RT-PCR (qRT-PCR) to evaluate gene expression for type 1 interferon IFNB1, chemokine CXCL10, and cytokines TSLP and IL6 in NHEKs treated with selected LL-34 parent, LL-34—F5A, I24A, F27A, and L31A—peptides either alone or in combination with U1 dsRNA for 18 h (Fig. 1, E–H).
# RNA extracted from cells (Pure Link RNA Isolation Kit; Life Technologies) was quantified on the Nanodrop 2000/200C Spectrophotometer (Thermo Fisher Scientific). About 500 ng of purified RNA was used to synthesize complementary DNA with iScript cDNA Synthesis Kit (Bio-Rad). Predeveloped Taqman (Thermo Fisher Scientific) gene expression assays were used to evaluate mRNA transcript levels. Taqman cycling conditions were used as previously described ([9], [45]). All experiments were performed on a CFX96 system (Bio-Rad). Fold change relative to GAPDH was calculated using the Livak ΔΔCt method ([46]).
Compound,"Gene expression of IL6, IFNB1, and CXCL10, cotreatment with U1 dsRNA","Gene expression of TSLP, peptide alone","Basal expression of IL6, IFNB1, and CXCL10, peptide alone"
CC[C@H](C)[C@H](NC(=O)[C@H](CCCCN)NC(=O)[C@H](CCC(=O)O)NC(=O)[C@H](CCCCN)NC(=O)[C@H](CO)NC(=O)[C@H](CCCCN)NC(=O)[C@H](CCCNC(=N)N)NC(=O)[C@H](Cc1ccccc1)NC(=O)[C@H](Cc1ccccc1)NC(=O)[C@H](CC(=O)O)NC(=O)CNC(=O)[C@H](CC(C)C)NC(=O)[C@@H](N)CC(C)C)C(=O)NCC(=O)N[C@@H](CCCCN)C(=O)N[C@@H](CCC(=O)O)C(=O)N[C@@H](Cc1ccccc1)C(=O)N[C@@H](CCCCN)C(=O)N[C@@H](CCCNC(=N)N)C(=O)N[C@H](C(=O)N[C@H](C(=O)N[C@@H](CCC(N)=O)C(=O)N[C@@H](CCCNC(=N)N)C(=O)N[C@@H](C)C(=O)N[C@@H](CCCCN)C(=O)N[C@@H](CC(=O)O)C(=O)N[C@@H](Cc1ccccc1)C(=O)N[C@@H](CC(C)C)C(=O)N[C@@H](CCCNC(=N)N)C(=O)N[C@@H](CC(N)=O)C(=O)N[C@@H](CC(C)C)C(=O)N[C@H](C(=O)N1CCC[C@H]1C(=O)N[C@@H](CCCNC(=N)N)C(=O)O)C(C)C)C(C)C)[C@@H](C)CC [LL-34—I24A] (H-LLGDFFRKSKEKIGKEFKRIVQRAKDFLRNLVPR-OH),reduction in gene expression,increased gene expression of TSLP,not affected
CC[C@H](C)[C@H](NC(=O)[C@H](CCCCN)NC(=O)[C@H](CCC(=O)O)NC(=O)[C@H](CCCCN)NC(=O)[C@H](CO)NC(=O)[C@H](CCCCN)NC(=O)[C@H](CCCNC(=N)N)NC(=O)[C@H](Cc1ccccc1)NC(=O)[C@H](Cc1ccccc1)NC(=O)[C@H](CC(=O)O)NC(=O)CNC(=O)[C@H](CC(C)C)NC(=O)[C@@H](N)CC(C)C)C(=O)NCC(=O)N[C@@H](CCCCN)C(=O)N[C@@H](CCC(=O)O)C(=O)N[C@@H](Cc1ccccc1)C(=O)N[C@@H](CCCCN)C(=O)N[C@@H](CCCNC(=N)N)C(=O)N[C@H](C(=O)N[C@H](C(=O)N[C@@H](CCC(N)=O)C(=O)N[C@@H](CCCNC(=N)N)C(=O)N[C@H](C(=O)N[C@@H](CCCCN)C(=O)N[C@@H](CC(=O)O)C(=O)N[C@@H](Cc1ccccc1)C(=O)N[C@@H](CC(C)C)C(=O)N[C@@H](CCCNC(=N)N)C(=O)N[C@@H](CC(N)=O)C(=O)N[C@@H](C)C(=O)N[C@H](C(=O)N1CCC[C@H]1C(=O)N[C@@H](CCCNC(=N)N)C(=O)O)C(C)C)[C@@H](C)CC)C(C)C)[C@@H](C)CC [LL-34—L31A] (H-LLGDFFRKSKEKIGKEFKRIVQRIKDFLRNAVPR-OH),reduction in gene expression,increased gene expression of TSLP,not affected
